How the values were obtained:
[1] = system: soybean sudden death syndrome (fungi of the genus Fusarium); experiment: Field trial against soybean sudden death syndrome (seed treatment); type: in vivo, Fusarium virguliforme; set-up: key to SDS incidence: % of affected plants; SDS severity: scale not given here; conditions: for SDS severity: average severity of symptoms in the plots at harvest time; for SDS incidence: percentage of affected plants at harvest time in the fall
Protocol: (§1) A field trial was conducted to determine the efficacy of compounds as described herein against soybean sudden death syndrome. Soybean seeds were planted at the start of the spring growing season in a location where fungi of the genus Fusarium were endemic. Nothing special was done to encourage growth of the fungus or development of the SDS disease.
(§2) Compounds listed in Table 1 below were used to treat soybean seeds prior to planting.
(§3) Seeds treated with oxamyl, at a rate of 1 mg per seed, and non-treated seeds (NT) were included as controls.
(§4) Other typical agronomic data, including counts of soybean cyst nematode (SCN) eggs, were also collected throughout the trial. The percentage of affected plants and the observed SDS disease severity are graphically depicted in FIGS. 1 and 2, respectively.

[2] = system: soybean cyst nematode (SCN); experiment: Field trial: counts of soybean cyst nematode (SCN) eggs; type: in vivo; conditions: for Fall Eggs/100 cc: SCN egg count in fall; for Spring Eggs/100 cc: SCN egg count in spring; for Mean RF: SCN eggs
Protocol: as §1, §2, §3, §4

[3] = soybean seed treatment 0.5 mg/seed
[4] = soybean seed treatment 1 mg/seed

SMILES | SDS severity [1, 3] | SDS incidence [1, 3] | SDS severity [1, 4] | SDS incidence [1, 4] | Fall Eggs/100 cc [2, 3] [eggs/100 cc] | Spring Eggs/100 cc [2, 3] [eggs/100 cc] | Mean RF [2, 3] | Fall Eggs/100 cc [2, 4] [eggs/100 cc] | Spring Eggs/100 cc [2, 4] [eggs/100 cc] | Mean RF [2, 4]
c1ccc(-c2noc(-c3cccs3)n2)cc1 [DC1822] | 2 | 45 | 1.5 | 28.75 | 2600 | 1175 | 3.875 | 2100 | 700 | 6.425
Clc1ccc(-c2noc(-c3ccco3)n2)cc1 [DC5523] | 2 | 47.5 | 2 | 26.25 | 1925 | 675 | 5.35 | 1725 | 800 | 4.325
Cc1cc(Cl)ccc1-c1noc(-c2ccco2)n1 [DC5823] | 2.25 | 55 | 2.5 | 46.25 | 3325 | 1075 | 3.35 | 1100 | 1450 | 1.625
CNC(=O)O/N=C(\SC)C(=O)N(C)C [Oxamyl, oxamyl, reference compound] | – | – | 1.5 | 32.5 | – | – | – | 3075 | 1050 | 6.65
